# From patent US12275729B2 (Merck Sharp & Dohme LLC, priority 2017, dated 2025)
# Assays:
# IDO1 [1] = molecular target: T1, IDO1 (Homo sapiens, UniProt P14902); assay: IDO1 Human Whole Blood Assay; type: cell-based; design: Human whole blood was drawn in sodium heparin coated tubes from healthy internal donors; from tissue; host or cells: human whole blood from healthy donors, stimulated with LPS and IFNγ; settings: LPS and IFNγ stimulated
# Description: IDO1 Human Whole Blood Assay
# Compounds to be tested were serially diluted in ten 3-fold steps in DMSO starting from 10 mM. […] LPS and IFNγ was prepared in RPMI to a 10× of final conc. (1000 ng/mL), final concentration is 100 ng/mL.
# Human whole blood was drawn in sodium heparin coated tubes from healthy internal donors. 240 μL of blood was transferred to each of the wells of a v-bottom 96 well plate. 30 μL of compound was transferred from intermediate dilution plate, and incubated for 15 min. 30 μL from stimulants was then transferred to blood and mixed thoroughly.
# On day 2 isotope labeled standard of kynurenine and tryptophan was made in water at 1Ox concentration and 30 μL was added to the blood at […] final concentration. The assay plates were centrifuged at 300×G for 10 min with no brake to separate plasma from red blood cells. 60 μL of plasma samples was removed without disturbing red blood cells. Plasma was diluted with RPMI in 1:1 ratio and proteins were precipitated out with two volume of Acetonitrile. The plates were centrifuged at 4000×G for 60 min. 20 μL of supernatant was carefully transferred to a 384 well plate contain 40 μL of 0.1% formic acid in water and analyzed by LC/MS/MS.
# LC/MS/MS analyses were performed using Thermo Fisher's LX4-TSQ Quantum Ultra system. This system consists of four Agilent binary high-performance liquid chromatography (HPLC) pumps and a TSQ Quantum Ultra triple quadrupole MS/MS instrument. For each sample, 5 μL were injected onto an Atlantis T3 column (2.1 mm×150 mm, […] particle size) from Waters. The mobile phase gradient pumped at 0.8 mL/min was used to elute the analytes from the column at 25° C. […] Mobile phase A consisted of 0.1% formic acid in water. Mobile phase B consisted of 0.1% of formic acid in acetonitrile. Data was acquired in positive mode using a HESI interface. The operational parameters for the TSQ Quantum Ultra instrument were a spray voltage of 4000 V, capillary temperature of 380° C., vaporizer temperature 400° C., shealth gas 60 arbitrary units, Aux gas 20 arbitrary units, tube lens 85 and collision gas 1.2 mTorr. […] The peak area was integrated by Xcalibur Quan software. The ratios between the kynurenine generated in the reaction and 2D6-Kynurenine spiked-in internal standard were used to generate percentage inhibition and IC50 values.
# IDO1 [2] = molecular target: T1, IDO1; assay: IDO1 Cellular Assay in HeLa Cells Stimulated with IFNγ; type: cell-based; settings: read-out: Hela IC50
# T1 sequence (P14902 whole entry): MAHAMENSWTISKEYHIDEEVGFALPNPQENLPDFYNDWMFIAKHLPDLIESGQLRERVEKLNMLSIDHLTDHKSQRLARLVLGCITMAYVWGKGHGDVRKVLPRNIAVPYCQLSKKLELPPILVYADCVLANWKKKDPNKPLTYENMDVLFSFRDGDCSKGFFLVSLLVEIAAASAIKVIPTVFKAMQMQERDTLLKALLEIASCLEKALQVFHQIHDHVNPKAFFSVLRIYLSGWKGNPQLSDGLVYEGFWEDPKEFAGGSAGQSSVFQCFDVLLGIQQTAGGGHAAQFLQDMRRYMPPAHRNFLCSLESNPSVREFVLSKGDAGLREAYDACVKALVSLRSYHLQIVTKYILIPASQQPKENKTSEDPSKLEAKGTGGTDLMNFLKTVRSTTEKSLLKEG
IC50 (IDO1 [1]),IC50 (IDO1 [2]; about 48 hours),IC50 (IDO1 [2]),SMILES
361 nM,3.3 nM,,"O=C(N1CCCc2cc(C3(C(=O)Nc4ccc(F)cc4)CCC3)ccc21)C1(F)CC1 [Example 98, 1-[1-(1-fluorocyclopropane-1-carbonyl)-1,2,3,4-tetrahydroquinolin-6-yl]-N-(4-fluorophenyl)cyclobutane-1-carboxamide]"
214 nM,1.4 nM,,"Cn1ccc(C(=O)N2CCCc3cc(C4(C(=O)Nc5ccc(F)cn5)CCC4)ccc32)n1 [Example 120, N-(5-fluoropyridin-2-yl)-1-[1-(1-methyl-1H-pyrazole-3-carbonyl)-1,2,3,4-tetrahydroquinolin-6-yl]cyclobutane-1-carboxamide]"
4 nM,1.87 nM,,"O=C(Nc1ccc(F)cc1)C1(c2ccc3c(n2)CCCN3c2ccnc(C3CC3)n2)CCC1 [Example 401, 1-(5-(2-cyclopropylpyrimidin-4-yl)-5,6,7,8-tetrahydro-1,5-naphthyridin-2-yl)-N-(4-fluorophenyl)cyclobutane-1-carboxamide]"
50 nM,2.37 nM,,"CC(C(=O)Nc1ccc(Cl)cc1)c1ccc2c(c1)CC(F)CN2C(=O)c1cccc(Cl)c1 (single isomer, unassigned) [Example 256, 2-(1-(3-chlorobenzoyl)-3-fluoro-1,2,3,4-tetrahydroquinolin-6-yl)-N-(4-chlorophenyl)propanamide]"
378 nM,6 nM,,"CC(NC(=O)c1ccc(F)cc1)c1ccc2c(c1)CCCN2C(CO)c1cccc(Cl)c1 (single isomer, unassigned) [Example 92]"
61 nM,1.9 nM,,"O=C([C@@H]1CCCCO1)N1CCCc2cc(C3(C(=O)Nc4ccc(F)cc4)CCC3)ccc21 (single isomer, unassigned) [Example 105]"
96 nM,2 nM,,"CC(C(=O)Nc1ccc(Cl)cc1)c1ccc2c(c1)CCCN2C(=O)c1cccc(Cl)c1 (stereo not drawn) [Example 51, 2-[1-(3-chlorobenzene-1-carbonyl)-1,2,3,4-tetrahydroquinolin-6-yl]-N-(4-chlorophenyl)propanamide]"
984 nM,,0.69 nM,"Cc1nccc(N2CCCc3nc(C(C)C(=O)Nc4ccc(Cl)cc4)ccc32)n1 (stereo not drawn) [Example 362, N-(4-chlorophenyl)-2-(5-(2-methylpyrimidin-4-yl)-5,6,7,8-tetrahydro-1,5-naphthyridin-2-yl)propanamide]"
245 nM,3.5 nM,,"CC(NC(=O)c1ccc(F)cc1)c1ccc2c(n1)CCCN2Cc1cccc(Cl)c1 (stereo not drawn) [Example 229, N-(1-{5-[(3-chlorophenyl)methyl]-5,6,7,8-tetrahydro-1,5-naphthyridin-2-yl}ethyl)-4-fluorobenzamide]"
223 nM,6.2 nM,,"O=C(C1CC1)N1CCCc2cc(C3(C(=O)Nc4ccc(F)cn4)CCC3)ccc21 [Example 96, 1-(1-(cyclopropanecarbonyl)-1,2,3,4-tetrahydroquinolin-6-yl)-N-(5-fluoropyridin-2-yl)cyclobutane-1-carboxamide]"
101 nM,5.7 nM,,"Cc1nccc(N2CCCc3nc(C(C)(C)C(=O)Nc4ccc(Cl)c(F)c4)ccc32)n1 [Example 391, N-(4-chloro-3-fluorophenyl)-2-methyl-2-(5-(2-methylpyrimidin-4-yl)-5,6,7,8-tetrahydro-1,5-naphthyridin-2-yl)propanamide]"
2610 nM,1.9 nM,,"Cc1nc(C(=O)N2CCCc3cc([C@H](C)C(=O)Nc4ccc(F)cn4)ccc32)no1 [Example 65, (2S)-N-(5-fluoropyridin-2-yl)-2-[1-(5-methyl-1,2,4-oxadiazole-3-carbonyl)-1,2,3,4-tetrahydroquinolin-6-yl]propanamide]"
2580 nM,2.7 nM,,"Cc1cccc(N2CCCc3nc(C4(NC(=O)c5ccc(F)cc5)CC4)ccc32)n1 [Example 245, 4-fluoro-N-(1-(5-(6-methylpyridin-2-yl)-5,6,7,8-tetrahydro-1,5-naphthyridin-2-yl)cyclopropyl)benzamide]"
19 nM,4.9 nM,,"N#Cc1cccc(C(=O)N2CCCc3nc(C4(NC(=O)c5ccc(F)cc5)CC4)ccc32)c1 [Example 175, N-{1-[5-(3-cyanobenzene-1-carbonyl)-5,6,7,8-tetrahydro-1,5-naphthyridin-2-yl]cyclopropyl}-4-fluorobenzamide]"
2040 nM,4.5 nM,,"CC(C)(C(=O)Nc1ccc(Cl)cc1)c1ccc2c(c1)CCCN2C(=O)c1cccc(Cl)c1 [Example 187, 2-[1-(3-chlorobenzene-1-carbonyl)-1,2,3,4-tetrahydroquinolin-6-yl]-N-(4-chlorophenyl)-2-methylpropanamide]"
29 nM,12 nM,,"CC(C(=O)Nc1ccc(F)cc1)c1ccc2c(n1)CCCN2C(=O)[C@H]1CCCO1 (stereo partly drawn) [Example 137, N-(4-fluorophenyl)-2-(5-((R)-tetrahydrofuran-2-carbonyl)-5,6,7,8-tetrahydro-1,5-naphthyridin-2-yl)propanamide]"
41 nM,2.51 nM,,"CC(C(=O)Nc1ccc(Cl)cc1)c1ccc2c(c1)CC(F)CN2C(=O)c1cccc(Cl)c1 (single isomer, unassigned) [Example 259, 2-(1-(3-chlorobenzoyl)-3-fluoro-1,2,3,4-tetrahydroquinolin-6-yl)-N-(4-chlorophenyl)propanamide]"
29 nM,2.7 nM,,"CC(C(=O)Nc1ccc(F)cc1)c1ccc2c(n1)CCCN2C(=O)C1CCCO1 (stereo in doubt) [Example 162, N-(4-fluorophenyl)-2-{5-[(2R)-oxolane-2-carbonyl]-5,6,7,8-tetrahydro-1,5-naphthyridin-2-yl}propanamide]"
198 nM,,4.99 nM,"CC(C(=O)Nc1ccc(F)cc1)c1ccc2c(n1)CCCN2c1ccnc(C(F)(F)F)n1 (stereo not drawn) [Example 364, N-(4-fluorophenyl)-2-(5-(2-(trifluoromethyl)pyrimidin-4-yl)-5,6,7,8-tetrahydro-1,5-naphthyridin-2-yl)propanamide]"
71 nM,2.3 nM,,"CC(NC(=O)c1ccc(F)cc1)c1ccc2c(n1)CCCN2C(=O)c1cc(Cl)ccn1 (stereo not drawn) [Example 277, N-(1-(5-(4-chloropicolinoyl)-5,6,7,8-tetrahydro-1,5-naphthyridin-2-yl)ethyl)-4-fluorobenzamide]"
436 nM,,27.9 nM,"Cc1nc(N2CCCc3nc(C(C)NC(=O)c4ccc(Cl)cc4)ccc32)c2ccccc2n1 (stereo not drawn) [Example 357, 2-(1-(4-chlorobenzamido)ethyl)-5-(2-methylquinazolin-4-yl)-5,6,7,8-tetrahydro-1,5-naphthyridin-1-ium 2,2,2-trifluoroacetate]"
4 nM,2.8 nM,,"O=C(OC1CC1)N1CCCc2nc(C3(C(=O)Nc4ccc(F)cc4)COC3)ccc21 [Example 266, cyclopropyl 6-(3-((4-fluorophenyl)carbamoyl)oxetan-3-yl)-3,4-dihydro-1,5-naphthyridine-1(2H)-carboxylate]"
70 nM,,0.79 nM,"O=C(OC1CC1)N1CCCc2nc(C3(C(=O)Nc4ccc(F)cc4)CCC3)ccc21 [Example 410, cyclopropyl 6-(1-((4-fluorophenyl)carbamoyl)cyclobutyl)-3,4-dihydro-1,5-naphthyridine-1(2H)-carboxylate]"
16 nM,,18 nM,"CC(NC(=O)c1ccc(F)cc1)c1ccc2c(n1)CCCN2c1ccn2nccc2n1 (stereo not drawn) [Example 368, 4-fluoro-N-(1-(5-(pyrazolo[1,5-a]pyrimidin-5-yl)-5,6,7,8-tetrahydro-1,5-naphthyridin-2-yl)ethyl)benzamide]"
